Reference: article PMC6013238, “Development of novel NEMO-binding domain mimetics for inhibiting IKK/NF-κB activation” (PLoS Biology, 2018)
Several values for one entry are separate records, joined by “and”; a condition that tells them apart may be missing. Equal entries are not always repeated.

Columns and labels:
[1] = system: NF-κB DNA binding activity; test: EMSA of NF-κB DNA binding activity in C2C12 myoblasts; format: cell-based, mouse; details: 200 μM, 1 h, serum-free media; TNF-α 10 ng/ml 15 min
Method: (§1) To confirm that the NBD mimetics reduce IKK kinase activity, phosphorylation of IκBα by IKK in response to 10 ng/ml of TNF-α was measured by western blot at 0, 5, and 10 min after stimulation. […] To determine whether the mimetics also reduce NF-κB DNA binding activity, electrophoretic mobility shift assay (EMSA) was conducted both in vitro and in vivo. […] The addition of acetonitrile increased the stability of both ZINC compounds, especially ZINC 5 (Fig 3D).
Fig 3 Two identified small molecules reduce NF-κB DNA binding activity in vivo and in vitro. (A) Levels of p-IκBα with or without treatment in response to TNF-α were determined by western blot analysis. HEK293 cells were pretreated with DMSO, ZINC12909780 (100 μM), and ZINC5 (100 μM) for 30 min followed by the stimulation of 10 ng/ml of TNF-α for 0, 5, and 10 min. Cell lysates were prepared for immunoblot against p-IκBα. GAPDH was used as a loading control. (B) EMSA analysis detecting NF-κB DNA binding activity was performed in C2C12 myoblasts. Cells were pretreated with 200 μM of DMSO, ZINC12909780, and ZINC5 in serum-free media for 1 h. TNF-α was then added to a final concentration of 10 ng/ml and incubated for 15 min. Nuclear extract was obtained for EMSA analysis. (C) EMSA analysis assessing NF-κB DNA binding activity in vivo was performed with quadriceps from mdx mice. […]

[2] = system: NF-κB activation; test: NF-κB firefly luciferase reporter assay, TNF-α-stimulated stably transfected HEK293 cells; format: cell-based, human; details: for NF-κB luciferase activity normalized to vehicle: Fig 2C, derivatives at 100 μM, TNF-α 10 ng/ml 3 h, vehicle = 100, single experiments; for NF-κB luciferase activity normalized to control: control = 100
Method: To determine whether the small molecules identified by the in silico screening inhibit NF-κB activation, a HEK293 cell line stably expressing a luciferase reporter driven by a synthetic, NF-κB-dependent promoter was utilized. To induce NF-κB activation, cells were treated with 10 ng/mL of TNF-α and harvested 3 h post treatment for analysis of luciferase activity. […] To determine whether ZINC12909780 inhibits NF-κB in a dose-dependent manner, concentrations were tested at 0, 6.25, 25, 50, and 100 μM.
Luciferase activity was normalized to untreated stimulated control cells. […] Cell viability was calculated by normalizing to untreated cells. […] Underlying data can be found in S1 Data.
HEK293 cells stably transfected with luciferase reporter plasmid driven by NF-κB were seeded in 96-well plates in triplicate and pretreated with DMSO or varying small molecules at indicated concentration for 30 min, followed by the stimulation of 10 ng/ml of TNF-α for 3 h. Cells were washed with PBS once and harvested in Passive Lysis Buffer (Promega, Madison, WI). Luciferase assay (Promega) was performed by using a luminometer according to the manufacturer’s instructions.

[3] = system: p-IκBα (IKK kinase activity); test: Western blot of p-IκBα after TNF-α in HEK293 cells; format: cell-based, human; details: 100 μM, 30 min pretreatment, TNF-α 10 ng/ml 0, 5, 10 min
Method: as §1
Fig 3 Two identified small molecules reduce NF-κB DNA binding activity in vivo and in vitro. (A) Levels of p-IκBα with or without treatment in response to TNF-α were determined by western blot analysis. HEK293 cells were pretreated with DMSO, ZINC12909780 (100 μM), and ZINC5 (100 μM) for 30 min followed by the stimulation of 10 ng/ml of TNF-α for 0, 5, and 10 min. […]
Cell lysate was prepared in RIPA buffer (20 mM Tris-HCl [pH 7.5], 150 mM NaCl, 1 mM Na^2EDTA, 1 mM EGTA, 1% NP-40, 1% sodium deoxycholate, 2.5 mM sodium pyrophosphate, 1 mM beta-glycerophosphate, 1 mM Na3VO4, and 1 μg/ml leupeptin), supplemented with 1X protease inhibitor cocktails (MilliporeSigma, St. Louis, MO) and 1X Halt phosphatase inhibitor cocktail (ThermoFisher, Waltham, MA). Protein concentrations were determined by Lowry protein assays, and 30 μg of protein was resolved by MINI-PROTEAN TGX 4%–15% SDS-PAGE gels. […]

O=C(COC(=O)Cc1ccccc1F)Nc1ccc(Cl)cn1 [ZINC5]
TNF-α-induced NF-κB DNA binding activity (EMSA) [1]: inhibit TNF-α-induced NF-κB DNA binding activity | NF-κB luciferase activity normalized to vehicle [2]: 58.79 and 64.16 and 89.81 and 46.87 and 48.05 | NF-κB luciferase activity normalized to vehicle ([2]; listed as Zinc5): lowered NF-κB activity robustly | NF-κB luciferase activity normalized to control ([2]; Fig 2E, 25 μM): 78.88 and 74.23 and 94.1 and 85.57 and 85.27 | NF-κB luciferase activity normalized to control ([2]; Fig 2E, 50 μM): 78.97 and 56.84 and 56.56 and 66.34 | NF-κB luciferase activity normalized to control ([2]; Fig 2E, 100 μM): 40.8 and 50.51 and 60.75 and 33.05 and 42.78 | Level of p-IκBα following TNF-α stimulation [3]: reduced the level of p-IκBα

Nc1ncccc1C(=O)OCC(=O)Nc1ccc(Cl)cc1F [ZINC12909780]
TNF-α-induced NF-κB DNA binding activity (EMSA) [1]: inhibit TNF-α-induced NF-κB DNA binding activity | NF-κB luciferase activity normalized to control ([2]; Fig 2B, 6.25 μM (log 0.79588)): 96.2175 and 102.44 and 115.164 | NF-κB luciferase activity normalized to control ([2]; Fig 2B, 25 μM (log 1.39794)): 93.2591 and 96.1802 and 73.5256 | Level of p-IκBα following TNF-α stimulation [3]: less robust reduction
